# ChEMBL document CHEMBL1137952, “Fertilin beta peptidic liposomes inhibit fertilization by steric blockage” (Bioorg Med Chem Lett, 2004)
# Calls of active or inactive are those of the source. The calls are words filed in the database; no cut-off is given here. Non-standard residues stand in square brackets, D forms with d. Residues, ends and D or L forms follow the SMILES beside them. ξ: configuration not given here. *: point of attachment. Myristoyl = CCCCCCCCCCCCCC(=O)*; Dap = NC[C@H](N)C(=O)O; ξDap = NCC(N)C(=O)O; GABA = NCCCC(=O)O
# Legend:
# Liposome [1] = assay: Inhibition of fertilization by POPC (40 or 400 nm), measured by number of zona-free eggs fertilized (FR); No inhibition; type: functional, subcellular, Mus musculus
# Liposome [2] = assay: Inhibition of fertilization by POPC (40 or 400 nm), measured by average number of sperm fused / egg (FI); No inhibition uM; type: functional, Mus musculus
# Liposome [3] = assay: Maximal inhibition of fertilization by POPC (40 or 400 nm); No inhibition; type: functional; settings: Mus musculus
# Liposome [4] = assay: Inhibition of fertilization by POPC (40 or 400 nm), measured by number of zona-free eggs fertilized (FR); No inhibition uM; type: functional, subcellular, Mus musculus
# Liposome [5] = assay: Inhibition of fertilization by fertilin beta peptide, measured by average number of sperm fused / egg (FI); type: functional, Mus musculus
# Liposome [6] = assay: Inhibition of fertilization by fertilin beta peptide, measured by number of zona-free eggs fertilized (FR); type: functional, subcellular, Mus musculus
# Liposome [7] = assay: Maximal inhibition of fertilization by fertilin beta peptide; type: functional, subcellular; settings: Mus musculus
# Liposome [8] = assay: Maximal inhibition of fertilization by fertilin beta peptide (1 mol%) with 40 nm liposome; type: functional, subcellular; settings: Mus musculus
# Liposome [9] = assay: Inhibition of fertilization by fertilin beta peptide (0.013 mol%) with 40 nm liposome, measured by number of zona-free eggs fertilized (FR); No inhibition; type: functional, subcellular, Mus musculus
# Liposome [10] = assay: Inhibition of fertilization by fertilin beta peptide (0.5 mol%) with 400 nm liposome, measured by average number of sperm fused per egg (FI); type: functional, subcellular, Mus musculus
# Liposome [11] = assay: Inhibition of fertilization by fertilin beta peptide (0.1 mol%) with 40 nm liposome, measured by average number of sperm fused per egg (FI); type: functional, subcellular, Mus musculus
# Liposome [12] = assay: Inhibition of fertilization by fertilin beta peptide (1 mol%) with 40 nm liposome, measured by average number of sperm fused per egg (FI); type: functional, subcellular, Mus musculus
# Liposome [13] = assay: Inhibition of fertilization by fertilin beta peptide (5 mol%) with 40 nm liposome, measured by average number of sperm fused per egg (FI); type: functional, subcellular, Mus musculus
# Liposome [14] = assay: Inhibition of fertilization by fertilin beta peptide (0.013 mol%) with 40 nm liposome, measured by average number of sperm fused per egg (FI); No inhibition up to 125 nm peptide; type: functional, Mus musculus
# Liposome [15] = assay: Inhibition of fertilization by fertilin beta peptide (0.1 mol%) with 40 nm liposome, measured by number of zona-free eggs fertilized (FR); type: functional, subcellular, Mus musculus
# Liposome [16] = assay: Inhibition of fertilization by fertilin beta peptide (5 mol%) with 40 nm liposome, measured by number of zona-free eggs fertilized (FR); type: functional, subcellular, Mus musculus
# Liposome [17] = assay: Inhibition of fertilization by fertilin beta peptide (0.5 mol%) with 40 nm liposome, measured by number of zona-free eggs fertilized (FR); type: functional, subcellular, Mus musculus
# Liposome [18] = assay: Inhibition of fertilization by fertilin beta peptide (1 mol%) with 40 nm liposome, measured by number of zona-free eggs fertilized (FR); type: functional, subcellular, Mus musculus
# Liposome [19] = assay: Inhibition of fertilization by fertilin beta peptide (0.5 mol%) with 400 nm liposome, measured by number of zona-free eggs fertilized (FR); type: functional, subcellular, Mus musculus
# Liposome [20] = assay: Maximal inhibition of fertilization by fertilin beta peptide (0.5 mol%) with 40 nm liposome; type: functional, subcellular; settings: Mus musculus
# Liposome [21] = assay: Inhibition of fertilization by fertilin beta peptide (0.013 mol%) with 40 nm liposome, measured by number of zona-free eggs fertilized (FR); No inhibition up to 125 nm peptide; type: functional, Mus musculus
# Liposome [22] = assay: Inhibition of fertilization by fertilin beta peptide (0.5 mol%) with 40 nm liposome, measured by average number of sperm fused per egg (FI); type: functional, subcellular, Mus musculus
# Liposome [23] = assay: Inhibition of fertilization by fertilin beta peptide (1 mol%) with 40 nm liposome, measured by average number of sperm fused /egg (FI); No inhibition uM peptide; type: functional, subcellular, Mus musculus
# Liposome [24] = assay: Inhibition of fertilization by fertilin beta peptide (1 mol%) with 40 nm liposome, measured by number of zona-free eggs fertilized (FR); No inhibition; type: functional, subcellular, Mus musculus
# Liposome [25] = assay: Inhibition of fertilization by fertilin beta peptide (1 mol%) with 40 nm liposome, measured by number of zona-free eggs fertilized (FR); No inhibition uM peptide; type: functional, subcellular, Mus musculus
# Liposome [26] = assay: Maximal inhibition of fertilization by fertilin beta peptide (1 mol%) with 40 nm liposome; No inhibition; type: functional, subcellular; settings: Mus musculus
structure (smiles),measurement,setting,value
CCCCCCCC/C=C\CCCCCCCC(=O)OC(COC(=O)CCCCCCCCCCCCCCC)COP(=O)([O-])OCC[N+](C)(C)C (stereo not given),IC50,Liposome [1],Not Active
same,IC50,Liposome [2],Not Active
same,Max inhibition,Liposome [3],inactive
same,IC50,Liposome [4],Not Active
CC(=O)NC[C@H](NC(C)=O)C(=O)NCCCC(=O)N[C@@H](C)C(=O)N[C@@H](CCC(N)=O)C(=O)N[C@@H](CC(=O)O)C(=O)N[C@@H](CCC(=O)O)C(=O)N[C@@H](CS)C(=O)N[C@@H](CC(=O)O)C(=O)N[C@H](C(=O)N[C@H](C(=O)N[C@@H](CCC(=O)O)C(=O)N[C@@H](Cc1ccc(O)cc1)C(N)=O)[C@@H](C)O)C(C)C (Ac-[Dap](Ac)[GABA]AQDECDVTEY-NH2),IC50,Liposome [5],524 µM
same,IC50,Liposome [6],500 µM
same,Max inhibition,Liposome [7],71%
CCCCCCCCCCCCCC(=O)NCC(NC(=O)CCCCCCCCCCCCC)C(=O)NCCCC(=O)N[C@@H](C)C(=O)N[C@@H](CCC(N)=O)C(=O)N[C@@H](CC(=O)O)C(=O)N[C@@H](CCC(=O)O)C(=O)N[C@@H](CS)C(=O)N[C@@H](CC(=O)O)C(=O)N[C@H](C(=O)N[C@H](C(=O)N[C@@H](CCC(=O)O)C(=O)N[C@@H](Cc1ccc(O)cc1)C(N)=O)[C@@H](C)O)C(C)C (stereo not given in full) (Myristoyl-[ξDap](Myristoyl)[GABA]AQDECDVTEY-NH2),Max inhibition,Liposome [8],97%
same,IC50,Liposome [9],Not Active
same,IC50,Liposome [10],0.92 µM
same,IC50,Liposome [11],0.5 µM
same,IC50,Liposome [12],2.4 µM
same,IC50,Liposome [13],5 µM
same,IC50,Liposome [14],Not Active
same,IC50,Liposome [15],0.5 µM
same,IC50,Liposome [16],4200000000000 liposomes ml-1
same,IC50,Liposome [16]; read-out: IC50,5 µM
same,IC50,Liposome [17],2800000000000 liposomes ml-1
same,IC50,Liposome [17]; read-out: IC50,0.34 µM
same,IC50,Liposome [18],11000000000000 liposomes ml-1
same,IC50,Liposome [18]; read-out: IC50,2.5 µM
same,IC50,Liposome [19],59000000000 liposomes ml-1
same,IC50,Liposome [19]; read-out: IC50,0.75 µM
same,Max inhibition,Liposome [20],93%
same,IC50,Liposome [21],Not Active
same,IC50,Liposome [22],0.5 µM
CCCCCCCCCCCCCC(=O)NCC(NC(=O)CCCCCCCCCCCCC)C(=O)NCCCC(=O)N[C@@H](CC(=O)O)C(=O)N[C@@H](Cc1ccc(O)cc1)C(=O)N[C@@H](CCC(=O)O)C(=O)N[C@H](C(=O)N[C@@H](CCC(=O)O)C(=O)N[C@@H](CCC(N)=O)C(=O)N[C@@H](C)C(=O)N[C@@H](CS)C(=O)N[C@H](C(=O)N[C@@H](CC(N)=O)C(=O)O)[C@@H](C)O)C(C)C (stereo not given in full) (Myristoyl-[ξDap](Myristoyl)[GABA]DYEVEQACTN-OH),IC50,Liposome [23],Not Active
same,IC50,Liposome [24],Not Active
same,IC50,Liposome [25],Not Active
same,Max inhibition,Liposome [26],inactive
